This note sets out measurements from patent US9090632B2, “Bicyclic oxazole and thiazole compounds and their use as allosteric modulators of mGluR5 receptors” (Vanderbilt University, priority 2010, dated 2015).

This assay deals with human mGluR5 (Homo sapiens, UniProt P41594). Put plainly: Cell-based functional Ca2+ mobilization assay, potentiation of glutamate EC20 response (H10H cell-line). The conditions noted are these: H10H cell-line expressing recombinant human mGluR5; for Emax / Emax (%): in presence of glutamate EC20, normalized to maximal glutamate response; for EC50 / pEC50: potentiation in presence of glutamate EC20. How it is done: Human embryonic kidney (HEK) cells transfected with rat mGluR5 were plated in clear bottom assay plates for assay in a Functional Drug Screening System (FDSS). In the alternative assay, HEK cells transfected with human mGluR5 were plated for assay in the FDSS. In some cases the HEK cells transfected with human mGluR5 are the H10H cell line. Alternatively, the HEK cells transfected with human mGluR5 are the H12H cell line. […] The cells were loaded with a Ca^2+-sensitive fluorescent dye (e.g., Fluo-4), and the plates were washed and placed in the FDSS instrument. After establishment of a fluorescence baseline for about three seconds, the compounds of the present invention were added to the cells, and the response in cells was measured. Five minutes later, an mGluR5 agonist (e.g., glutamate, 3,5-dihydroxyphenylglycine, or quisqualate) was added to the cells, and the response of the cells was measured. Potentiation of the agonist response of mGluR5 by the compounds in the present invention was observed as an increase in response to non-maximal concentrations of agonist (here, glutamate) in the presence of compound compared to the response to agonist in the absence of compound.
The above described assay can be operated in two modes. In the first mode, a range of concentrations of the present compounds were added to cells, followed by a single fixed concentration of agonist. If a compound acted as a potentiator, an EC50 value for potentiation and a maximum extent of potentiation by the compound at this concentration of agonist was determined by non-linear curve fitting. In the second mode, several fixed concentrations of the present compounds were added to various wells on a plate, followed by a range of concentrations of agonist for each concentration of present compound; the EC50 values for the agonist at each concentration of compound were determined by non-linear curve fitting. A decrease in the EC50 value of the agonist with increasing concentrations of the present compounds (a leftward shift of the agonist concentration-response curve) is an indication of the degree of mGluR5 potentiation at a given concentration of the present compound. An increase in the EC50 value of the agonist with increasing concentrations of the present compounds (a rightward shift of the agonist concentration-response curve) is an indication of the degree of mGluR5 antagonism at a given concentration of the present compound. The second mode also indicates whether the present compounds also affect the maximum response to mGluR5 to agonists.
Human mGluR5a cDNA in pCMV6-XL6 mammalian expression plasmid was purchased from OriGene Technologies, Inc. (catalogue number SC326357) and subcloned into pcDNA3.1(−). Human embryonic kidney (HEK) 293A cells were then transfected with human mGluR5a pcDNA3.1(−) using LipofectAmine 2000 (Invitrogen) and monoclones were selected and tested for functional response using a Ca^2+ mobilization assay. Monoclones were named for the species (“H” for human) plus the location on the plate (e.g. “10H”).
HEK cells transfected with the human mGluR5a receptor were plated at 15,000 cells/well in clear-bottomed poly-D-lysine-coated assay plates (BD Falcon) in glutamate-glutamine-free growth medium and incubated overnight at 37° C. and 5% CO2. The cell-line used to obtain the data reported herein was the H10H cell-line expressing the human mGluR5 receptor. Although the H10H cell-line was used to obtain the data shown herein, the H12H cell-line expressing the human mGluR5 receptor can also be used in these assays. The following day, the growth medium was removed and the cells were washed with assay buffer containing 1× Hank's balanced salt solution (Invitrogen, Carlsbad, Calif.), 20 mM HEPES, 2.5 mM probenecid, pH 7.4 and left with 20 μL of this reagent. Following this step, the cells were loaded with calcium indicator dye, fluo-4 AM, to a final concentration of 2 μM and incubated for 40-45 min at 37° C. […]
(In general: Calcium assays in cells follow changes in intracellular calcium, usually with a dye or a luminescent sensor.)

As usually defined, the Emax is the greatest response seen or fitted, relative to the assay's reference. For orientation: EC50 means the concentration needed to bring the measured effect to its halfway point. What is called pEC50 is the EC50 on a negative log10 scale, so that one unit is a factor of ten.

Sequence of human mGluR5 (P41594 21-1180 isoform P41594-2 limits assumed): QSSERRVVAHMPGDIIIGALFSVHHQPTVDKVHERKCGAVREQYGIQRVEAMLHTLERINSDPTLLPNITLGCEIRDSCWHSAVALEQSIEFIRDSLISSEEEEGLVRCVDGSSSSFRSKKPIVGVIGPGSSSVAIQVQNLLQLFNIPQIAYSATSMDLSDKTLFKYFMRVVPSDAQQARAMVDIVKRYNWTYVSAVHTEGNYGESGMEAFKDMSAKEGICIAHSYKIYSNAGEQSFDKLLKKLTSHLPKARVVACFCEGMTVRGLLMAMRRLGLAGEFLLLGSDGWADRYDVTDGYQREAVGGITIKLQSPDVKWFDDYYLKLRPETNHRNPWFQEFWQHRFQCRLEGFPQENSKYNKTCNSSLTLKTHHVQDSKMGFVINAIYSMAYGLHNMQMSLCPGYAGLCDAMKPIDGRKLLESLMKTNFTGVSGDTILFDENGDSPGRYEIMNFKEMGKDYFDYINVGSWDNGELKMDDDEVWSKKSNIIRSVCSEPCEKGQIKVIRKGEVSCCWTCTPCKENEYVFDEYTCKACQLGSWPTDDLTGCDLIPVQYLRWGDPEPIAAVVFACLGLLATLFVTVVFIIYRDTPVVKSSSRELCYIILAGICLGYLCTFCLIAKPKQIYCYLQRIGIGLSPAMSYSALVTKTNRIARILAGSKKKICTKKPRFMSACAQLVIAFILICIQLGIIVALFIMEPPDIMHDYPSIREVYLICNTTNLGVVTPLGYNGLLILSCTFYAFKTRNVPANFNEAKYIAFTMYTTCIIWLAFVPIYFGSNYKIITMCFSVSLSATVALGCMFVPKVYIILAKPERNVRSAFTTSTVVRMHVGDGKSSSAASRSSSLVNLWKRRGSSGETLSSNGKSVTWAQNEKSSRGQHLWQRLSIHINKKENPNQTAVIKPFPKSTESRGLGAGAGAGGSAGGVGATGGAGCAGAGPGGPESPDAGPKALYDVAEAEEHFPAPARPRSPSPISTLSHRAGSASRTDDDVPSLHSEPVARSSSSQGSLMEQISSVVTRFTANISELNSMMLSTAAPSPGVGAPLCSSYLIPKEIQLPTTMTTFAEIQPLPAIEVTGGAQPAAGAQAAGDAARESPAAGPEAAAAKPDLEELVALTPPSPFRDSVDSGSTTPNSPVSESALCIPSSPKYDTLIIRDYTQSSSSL

On to `O=C(CC1CC1)N1CCc2nc(COc3ccccc3)oc2C1` [Example B2, 5-(cyclopropylacetyl)-2-(phenoxymethyl)-4,5,6,7-tetrahydro[1,3]oxazolo[5,4-c]pyridine], for which the Emax worked out at 58% and the EC50 is 3.55 µM.
For `O=C(c1cc(F)cc(F)c1)N1CCc2nc(COc3ccccc3)oc2C1` [Example B3, 5-[(3,5-difluorophenyl)carbonyl]-2-(phenoxymethyl)-4,5,6,7-tetrahydro[1,3]oxazolo[5,4-c]pyridine] the same measures were 47% and 0.132 µM.
For `O=C(c1ccc(F)cc1)N1CCc2nc(COc3ccccc3)oc2CC1` [Example B4, 6-[(4-fluorophenyl)carbonyl]-2-(phenoxymethyl)-5,6,7,8-tetrahydro-4H-[1,3]oxazolo[4,5-d]azepine] the same measures were 76% and 3.39 µM.
`O=C(c1ccc(F)cc1F)N1CCc2nc(COc3ccccc3)oc2C1` [Example B6]: the maximum response (Emax) was 92% and the 50% effective concentration (EC50) was 0.501 µM.
The matching figures for `O=C(c1ccc(F)cc1)N1CCc2nc(COc3cccc(F)c3)oc2C1` [Example B8, 5-(4-fluorobenzoyl)-2-[(3-fluorophenoxy)methyl]-4,5,6,7-tetrahydro-oxazolo[5,4-c]pyridine]: 74% and 0.219 µM.
Consider `O=C(c1ccccc1F)N1CCc2nc(COc3ccccc3)oc2C1` [Example B9], for which the Emax turned out to be 68% and the EC50 is 0.49 µM.
For `O=C(c1ccc(F)cc1)N1CCc2nc(COc3ccc(F)cc3)oc2C1` [Example B10], the Emax worked out at 75% and the pEC50 was 6.18.
On to `O=C(c1ccc(F)cc1)N1CCc2nc(COc3ccc(F)c(F)c3)oc2C1` [Example B11], for which the maximal effect (Emax) stood at 60% and the pEC50 is given as 6.19.
Turning to `O=C(c1ccc(F)cc1F)N1CCc2nc(COc3ccccc3)sc2C1` [Example B12], the “Emax (%)” value is recorded as 69% and the negative-log EC50 (pEC50) is 6.06.
Regarding `O=C(c1ccc(F)cc1)N1CCc2nc(COc3ccccc3F)oc2C1` [Example B13], the Emax turned out to be 68% and the EC50 is 1.15 µM.
For `O=C(c1ccc(F)cc1)N1CCc2nc(/C=C/c3ccccc3)oc2C1` [Example B14] the same measures were 48% and 1.55 µM.
Turning to `O=C(c1cccc(F)c1F)N1CCc2nc(COc3ccccc3)oc2C1` [Example B15], the “Emax (%)” value is recorded as 74% and the pEC50 came out at 6.43.
Turning to `O=C(c1c(F)cccc1F)N1CCc2nc(COc3ccccc3)oc2C1` [Example B16], the maximum response (Emax) was 82% and the EC50 was 0.372 µM.
In the case of `O=C(c1ccc(F)c(F)c1)N1CCc2nc(COc3ccccc3)oc2C1` [Example B17], the “Emax (%)” value is reported as 86% and the negative logarithm of the EC50 (pEC50) came out at 6.60.
For `O=C(c1cccnc1)N1CCc2nc(COc3ccccc3)oc2C1` [Example B18] the same measures were 69% and 5.33.
Turning to `O=C(c1ccncc1)N1CCc2nc(COc3ccccc3)oc2C1` [Example B19], the Emax is 69% and the EC50 is 4.79 µM.
With `O=C(OCc1ccccc1)N1CCc2nc(COc3ccccc3)oc2C1` [Example B20], the “Emax (%)” value is on record as 72% and the pEC50 was 5.82.
For `O=C(c1ccc(F)cc1)N1Cc2nc(COc3ccccc3)oc2C1` [Example B21] the same measures were 81% and 6.05.
Take `O=C(c1ccc(F)cc1)N1CCc2oc(COc3ccccc3)nc2C1` [Example B22]: the Emax is 65% and the half-maximal effective concentration (EC50) was 1.62 µM.
On to `O=C(c1ccccn1)N1CCc2nc(COc3ccccc3)oc2C1` [Example B23], for which the “Emax (%)” value amounted to 54% and the pEC50 is recorded as below 5.
For `CC(=O)N1CCc2nc(COc3ccccc3)oc2C1` [Example B24], the Emax stood at 53% and the EC50 was above 10 µM.
For `O=C(c1ccc(F)cc1)N1CCCc2nc(COc3ccccc3)sc2C1` [Example B25], the “Emax (%)” value is on record as 83% and the pEC50 was 6.35.
For `O=C(c1cccc(F)c1F)N1CCc2nc(COc3cccc(F)c3)oc2C1` [Example B28] the same measures were 72% and 6.24.
The matching figures for `O=C(c1ccc(F)c(F)c1)N1CCc2nc(COc3cccc(F)c3)oc2C1` [Example B29]: 75% and 6.62.
With `O=C(c1ccc(F)cc1)N1CCc2nc(/C=C/c3ccccc3)oc2CC1` [Example B31, 6-(4-fluorobenzoyl)-5,6,7,8-tetrahydro-2-[(E)-2-phenylethenyl]-4H-oxazolo[4,5-d]azepine], the maximal effect (Emax) was 47% and the EC50 was 1.82 µM.
For `O=C(C1CC1)N1CCc2nc(COc3ccccc3)oc2C1` [Example B32] the same measures were 39% and 3.02 µM.
Take `Cc1ccnc(OCc2nc3c(o2)CN(C(=O)c2ccc(F)cc2)CC3)c1` [Example B33, 5-[(4-fluorophenyl)carbonyl]-2-{[(4-methylpyridin-2-yl)oxy]methyl}-4,5,6,7-tetrahydro[1,3]oxazolo[5,4-c]pyridine]: the Emax is 69% and the EC50 was 2 µM.
The matching figures for `Cn1c(C(=O)N2CCc3nc(COc4ccccc4)oc3C2)cc2ccccc21` [Example B36, 5-[(1-methyl-1H-indol-2-yl)carbonyl]-2-(phenoxymethyl)-4,5,6,7-tetrahydro[1,3]oxazolo[5,4-c]pyridine]: 56% and 0.501 µM.
The matching figures for `Cc1ccccc1OCc1nc2c(o1)CN(C(=O)c1ccc(F)cc1)CC2` [Example B37]: 57% and 2.4 µM.
The matching figures for `O=C(c1ncc(F)cc1F)N1CCc2nc(COc3ccccc3)oc2C1` [Example B38]: 60% and 4.07 µM.
For `Cc1ncccc1C(=O)N1CCc2nc(COc3ccccc3)oc2C1` [Example B41], the maximal effect (Emax) is 50% and the EC50 is 6.03 µM.
Consider `Cc1cccnc1C(=O)N1CCc2nc(COc3ccccc3)oc2C1` [Example B42], for which the “Emax (%)” value turned out to be 58% and the negative-log EC50 (pEC50) is on record as below 5.
`Cc1cccc(C(=O)N2CCc3nc(COc4ccccc4)oc3C2)n1` [Example B44]: the “Emax (%)” value turned out to be 64% and the pEC50 was 5.7.
As to `O=C(c1ccc(F)cn1)N1CCc2nc(COc3cccc(F)c3)oc2C1` [Example B45], the “Emax (%)” value stood at 66% and the pEC50 was 5.51.
`N#Cc1ccccc1C(=O)N1CCc2nc(COc3ccccc3)oc2C1` [Example B46]: the maximal response (Emax) was found to be 63% and the 50% effective concentration (EC50) is 1.62 µM.
For `O=C(c1ncccc1F)N1CCc2nc(COc3ccccc3)oc2C1` [Example B47] the same measures were 56% and above 10 µM.
`O=C(c1ccc(F)cc1)N1CCc2nc(COc3cncc(F)c3)oc2C1` [Example B48]: the “Emax (%)” value amounted to 62% and the pEC50 amounted to 5.49.
The matching figures for `N#Cc1cc(F)cc(C(=O)N2CCc3nc(COc4ccccc4)oc3C2)c1` [Example B50]: 57% and 6.43.
The matching figures for `O=C(Cc1ccc(F)cc1)N1CCc2nc(COc3ccccc3)oc2C1` [Example B51]: 61% and 5.92.
For `O=C(c1ccc(S(F)(F)(F)(F)F)cc1)N1CCc2nc(COc3ccccc3)oc2C1` [Example B52] the same measures were 51% and 5.24.
Consider `N#Cc1cccc(OCc2nc3c(o2)CN(C(=O)c2ccc(F)cc2)CC3)c1` [Example B53], for which the maximal effect (Emax) amounted to 66.5% and the 50% effective concentration (EC50) was 1.26 µM.
